The record followed here is US9938249B2, “Anti-amyloid compounds containing benzofurazan” (Treventis Corporation, priority 2014, dated 2018).

Each structure is given as a SMILES string. Bounds are passed on as bounds.

Terminally biotinylated beta-amyloid (Aβ42), sequence (P05067 672-713, species assumed): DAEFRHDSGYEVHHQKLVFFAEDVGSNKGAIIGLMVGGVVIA

The target in the assay is Terminally biotinylated beta-amyloid (Aβ42) (Homo sapiens, UniProt P05067). The experiment in a line: Aβ42 biotinylated (biotin-AB) oligomerization assay, NeutrAvidin capture ELISA. The following applies: approximate value; 1 hr oligomerization at room temperature; read-out: IC50 Aβ 42-bio. It counts as biochemical. As for the experimental part:
Aβ42 Biotinylated Assay Terminally biotinylated beta-amyloid (biotin-AB) was dissolved in HFIP at the concentration of 1 mg/ml and aliquoted to 50 μl/tube in 0.65 ml colored microfuge tubes (Fisher 02-681-248). The aliquots were diluted immediately by adding 450 μl of HFIP to 0.1 mg/ml. Approximately 46 ul (containing approximately 4.6 ug of biotin-AB) were taken from a tube, 100 ul of HFIP added, vortexed, and dried to a thin film under an N2 stream. 100 μl of trifluoroacetic acid (TFA) was added and vortexed. After 10 minute incubation at room temperature in a hood, resulting in disaggregation of seeds, the sample was vortexed again and dried again to a thin film under an N2 stream. 100 μl of HFIP was added, mixed, and the biotin-AB sample was dried for a third time under an N2 stream to remove residual TFA. The treated biotin-AB was dissolved in DMSO to a final peptide concentration of […] (SOX). An ELISA “capture” plate (Costar 9018) was coated with 50 μl of 1 μg/ml NeutrAvidin™ (NA) in 10 mM sodium phosphate buffer, pH 7.5. (NeutrAvidin can be prepared as 1 mg/ml (1000×) in milliQ water/10% glycerol and stored at −80° C. before use.) The plate was sealed plate with adhesive film and stored at 4° C. overnight, then blocked for 2 hours (unsealed) at room temperature with 200 μl/well OFB+0.1% v/v Tween 20. The “capture” plate was allowed to come to room temperature. Several dilutions of test compound were prepared with 100% DMSO, according to the desired concentration to be tested. 2.5 μl of diluted test compound was pipetted into the bottom of each well of a 96-well “dilution” polypropylene plate (Costar 3365), to which was added 250 ul of Oligomer Formation Buffer (OFB: 20 mM sodium phosphate, pH 7.5-150 mM NaCl). To begin oligomerization, 2 μl/well of the biotin-AB was added to the bottom of each well of a 96-well “reaction” polypropylene plate (Costar 3365) and 100 ul of each well of the “dilution” plate was transferred to the “reaction” plate (final concentration of DMSO being up to 1%). The reaction plate was sealed and incubated for 1 hr at room temperature without shaking. The reaction was then stopped by the addition of 50 ul of 0.3% Tween 20 in water. The “capture” plate blocking solution was removed, and 50 ul of each well of the “reaction” plate was transferred to each well of the “capture” plate. The “capture” plate was sealed and incubated for 2 hours at room temperature with shaking at 150 rpm. The “capture” plate was then washed on a plate washer (3×) with 200 ul/well TBST (20 mM Tris-HCL, pH 7.5/150 mM NaCl/0.1% Tween 20). 50 ul of Streptavidin-horseradish […] (1:20,000 dilution) in OFB+0.1% Tween 20 was added to each well, the “capture” plate was sealed and incubated for 1 hr with shaking at 150 rpm. As before, the plate was washed, then 100 ul of TMB/H2O2 substrate solution was added to each well. After 5-10 minutes, 100 ul of 1% v/v sulfuric acid was added and the absorbance of each well was read at 450 nm using a standard plate reader. Data is summarized in the table below; numbers given in parenthesis for the Aβ 40 Thioflavin T assays are the values in that particular experiment for compound ID 1027, given as the first entry in this table for structural comparison. “IC50 Aβ42-bio” column refers to the approximate value of the Aβ42 biotinylated assay IC50 in micromoles/L.
For orientation: In an ELISA, binding on a coated surface is turned into a signal by an enzyme label.
What is called IC50 is the concentration at which inhibition is half-maximal. As for `OC(c1cncc(-c2cc(N3CC(CN4CCCC4)C3)c3nonc3c2)c1)C(F)(F)F` (stereo not shown) [compound 1544], the IC50 was determined as 3.9 µM.
The result for `OC(c1ccc(-c2cc(N3CC(CN4CCCC4)C3)c3nonc3c2)nc1)C(F)(F)F` (stereo not shown) [compound 1545] reads 8.4 µM.
The result for `OC(c1cnc(-c2cc(N3CC(CN4CCCC4)C3)c3nonc3c2)s1)C(F)(F)F` (stereo not shown) [compound 1546] reads 8.4 µM; that for `Fc1ccc(-c2cc(N3CC(CN4CCCC4)C3)c3nonc3c2)cc1` [compound 1547], 12 µM; that for `NC(=O)c1cc(N2CC(CN3CCCC3)C2)c2nonc2c1` [compound 1548], 25.3 µM.
The result for `CC(c1cc(N2CC(CN3CCCC3)C2)c2nonc2c1)N(C1CC1)S(C)(=O)=O` (stereo not shown) [compound 1549] reads 5.5 µM; that for `CC(=O)N(C1CC1)C(C)c1cc(N2CC(CN3CCCC3)C2)c2nonc2c1` (stereo not shown) [compound 1550], 5.3 µM.
Regarding `CC(NC1CC1)c1cc(N2CC(CN3CCCC3)C2)c2nonc2c1` (stereo not shown) [compound 1551], the concentration for half-maximal inhibition (IC50) came out at 6.8 µM.
The result for `O=C(c1cc(N2CC(CN3CCCC3)C2)c2nonc2c1)N1CCCCC1` [compound 1552] reads 5.7 µM.
Then `OC(CCc1cc(N2CC(CN3CCCC3)C2)c2nonc2c1)C(F)(F)F` (stereo not shown) [compound 1553], with 12.1 µM.
With `CS(=O)(=O)N1CCCCC1c1cc(N2CC(CN3CCCC3)C2)c2nonc2c1` (stereo not shown) [compound 1554], the IC50 amounted to 8.3 µM.
Then `CC(=O)N1CCCCC1c1cc(N2CC(CN3CCCC3)C2)c2nonc2c1` (stereo not shown) [compound 1555], with 5 µM; and `COCCN1CCCCC1c1cc(N2CC(CN3CCCC3)C2)c2nonc2c1` (stereo not shown) [compound 1556], with 6.6 µM.
Then `CN1CCCCC1c1cc(N2CC(CN3CCCC3)C2)c2nonc2c1` (stereo not shown) [compound 1557], with 18.7 µM; and `Cc1cc(C)c(-c2cc(N3CC(CN4CCCC4)C3)c3nonc3c2)c(C)c1` [compound 1558], with 5.9 µM; and `Cc1ccc(C)c(-c2cc(N3CC(CN4CCCC4)C3)c3nonc3c2)c1` [compound 1559], with 7.6 µM.
Then `c1csc(-c2cc(N3CC(CN4CCCC4)C3)c3nonc3c2)n1` [compound 1560], with 6.7 µM; and `c1nc(-c2cc(N3CC(CN4CCCC4)C3)c3nonc3c2)cs1` [compound 1561], with 6.9 µM.
As for `OC(c1ccc(-c2cc(N3CC(CN4CCOCC4)C3)c3nonc3c2)s1)C(F)(F)F` (stereo not shown) [compound 1562, 2,2,2-trifluoro-1-(5-(7-(3-(morpholinomethyl)azetidin-1-yl)benzo[c][1,2,5]oxadiazol-5-yl)thiophen-2-yl)ethan-1-ol], the IC50 was found to be 2.7 µM.
Then `OC(c1cccnc1-c1cc(N2CC(CN3CCOCC3)C2)c2nonc2c1)C(F)(F)F` (stereo not shown) [compound 1563, 2,2,2-trifluoro-1-(2-(7-(3-(morpholinomethyl)azetidin-1-yl)benzo[c][1,2,5]oxadiazol-5-yl)pyridin-3-yl)ethan-1-ol], with more than 20 µM; and `OC(c1cccnc1-c1cc(N2CC(CN3CCCC3)C2)c2nonc2c1)C(F)(F)F` (stereo not shown) [compound 1564, 2,2,2-trifluoro-1-(2-(7-(3-(pyrrolidin-1-ylmethyl)azetidin-1-yl)benzo[c][1,2,5]oxadiazol-5-yl)pyridin-3-yl) ethan-1-ol], with 6 µM; and `OCc1csc(-c2cc(N3CC(CN4CCOCC4)C3)c3nonc3c2)n1` [compound 1565], with more than 20 µM.
Then `OCc1nc(-c2cc(N3CC(CN4CCOCC4)C3)c3nonc3c2)cs1` [compound 1566], with more than 20 µM; and `OC(c1nc(-c2cc(N3CC(CN4CCCC4)C3)c3nonc3c2)cs1)C(F)(F)F` (stereo not shown) [compound 1567], with 26.9 µM.
Then `OC(c1cc(-c2cc(N3CC(CN4CCOCC4)C3)c3nonc3c2)cs1)C(F)(F)F` (stereo not shown) [compound 1568, 2,2,2-trifluoro-1-(4-(7-(3-(morpholinomethyl)azetidin-1-yl)benzo[c][1,2,5]oxadiazol-5-yl)thiophen-2-yl) ethan-1-ol], with 5.5 µM.
For `OC(c1ncccc1-c1cc(N2CC(CN3CCOCC3)C2)c2nonc2c1)C(F)(F)F` (stereo not shown) [compound 1569, 2,2,2-trifluoro-1-(3-(7-(3-(morpholinomethyl)azetidin-1-yl)benzo[c][1,2,5]oxadiazol-5-yl)pyridin-2-yl) ethan-1-ol], the IC50 is 11.5 µM.
The result for `N#Cc1cc(N2CC(CN3CCOCC3)C2)c2nonc2c1` [compound 1570, 7-(3-(morpholinomethyl)azetidin-1-yl) benzo[c][1,2,5]oxadiazole-5-carbonitrile] reads more than 20 µM.
The result for `OCc1cc(N2CC(CN3CCOCC3)C2)c2nonc2c1` [compound 1571, (7-(3-(morpholinomethyl)azetidin-1-yl)benzo[c][1,2,5]oxadiazol-5-yl)methanol] reads more than 20 µM; that for `OCc1ccccc1-c1cc(N2CC(CN3CCOCC3)C2)c2nonc2c1` [compound 1572], more than 20 µM; that for `COc1ccc(-c2cc(N3CC(CN4CCOCC4)C3)c3nonc3c2)cc1OC` [compound 1573, 6-(3,4-dimethoxyphenyl)-4-(3-(morpholinomethyl)azetidin-1-yl) benzo[c][1,2,5]oxadiazole], 12.9 µM.
With `N#Cc1ccc(-c2cc(N3CC(CN4CCOCC4)C3)c3nonc3c2)cc1` [compound 1574, 4-(7-(3-(morpholinomethyl)azetidin-1-yl)benzo[c][1,2,5]oxadiazol-5-yl)benzonitrile], the IC50 came out at 16.5 µM.
The result for `Clc1cc(Cl)cc(-c2cc(N3CC(CN4CCOCC4)C3)c3nonc3c2)c1` [compound 1575, 6-(3,5-dichlorophenyl)-4-(3-(morpholinomethyl)azetidin-1-yl) benzo[c][1,2,5]oxadiazole] reads 4 µM; that for `NC(=O)c1cccc(-c2cc(N3CC(CN4CCOCC4)C3)c3nonc3c2)c1` [compound 1576, 3-(7-(3-(morpholinomethyl)zetidin-1-yl)benzo[c][1,2,5]oxadiazol-5-yl) benzamide], 46 µM; that for `N#Cc1cccc(-c2cc(N3CC(CN4CCOCC4)C3)c3nonc3c2)c1` [compound 1577, 3-(7-(3-(morpholinomethyl)azetidin-1-yl)benzo[c][1,2,5]oxadiazol-5-yl)benzonitrile], 14.8 µM.
`COc1ccc(-c2cc(N3CC(CN4CCOCC4)C3)c3nonc3c2)cc1Cl` [compound 1578, 6-(3-chloro-4-methoxyphenyl)-4-(3-(morpholinomethyl)azetidin-1-yl) benzo[c][1,2,5]oxadiazole]: the IC50 is 2.9 µM.
Then `NC(=O)c1ccc(-c2cc(N3CC(CN4CCCC4)C3)c3nonc3c2)cc1` [compound 1579, 4-(7-(3-(pyrrolidin-1-ylmethyl)azetidin-1-yl)benzo[c][1,2,5]oxadiazol-5-yl)benzamide], with 96 µM; and `c1ccc(-c2cc(N3CC(CN4CCCC4)C3)c3nonc3c2)nc1` [compound 1580, 6-(Pyridin-2-yl)-4-(3-(pyrrolidin-1-ylmethyl)azetidin-1-yl)benzo[c][1,2,5]oxadiazole], with more than 20 µM; and `COc1cc(-c2cc(N3CC(CN4CCOCC4)C3)c3nonc3c2)ccc1F` [compound 1584, 6-(4-fluoro-3-methoxyphenyl)-4-(3-(morpholinomethyl)azetidin-1-yl) benzo[c][1,2,5]oxadiazole], with 7 µM.
Then `COc1ccc(-c2cc(N3CC(CN4CCOCC4)C3)c3nonc3c2)cc1F` [compound 1585, 6-(3-fluoro-4-methoxyphenyl)-4-(3-(morpholinomethyl)azetidin-1-yl) benzo[c][1,2,5]oxadiazole], with 5.8 µM; and `N#Cc1ccccc1-c1cc(N2CC(CN3CCOCC3)C2)c2nonc2c1` [compound 1586, 2-(7-(3-(morpholinomethyl)azetidin-1-yl)benzo[c][1,2,5]oxadiazol-5-yl)benzonitrile], with 41.9 µM.
